Test results reported in PubChem BioAssay AID1963970 (Molecular Pharmacology Branch, DTP, NCI, 2024).

Test system: 931267-113-T-J1-PDC multicell spheroid viability
Assay: Anticancer human tumor 931267-113-T-J1-PDC patient-derived colon adenocarcinoma cell line growth inhibition [PI3K]
Settings: for IC50: curve of first compound; for viability, T/C: stronger effect = lower value
Outline: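 Spheroid viability read-out. Co-cultures contained the tumor line plus HUVEC and human MSCs. Each agent was paired with a PI3K inhibitor (inavolisib, alpelisib, duvelisib, copanlisib) across half-log dilutions starting at clinical Cmax, or at 10 microM when Cmax was unknown.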

[1] = second compound 0.0316 µM, first compound 0.0316 µM
[2] = second compound 0.0316 µM, first compound 0.1 µM
[3] = second compound 0.0316 µM, first compound 0.316 µM
[4] = second compound 0.0316 µM, first compound 1 µM
[5] = second compound 0.0316 µM, first compound 3.16 µM
[6] = second compound 0.0316 µM, first compound 10 µM
[7] = second compound 0.1 µM, first compound 0.0316 µM
[8] = second compound 0.1 µM, first compound 0.1 µM
[9] = second compound 0.1 µM, first compound 0.316 µM
[10] = second compound 0.1 µM, first compound 1 µM
[11] = second compound 0.1 µM, first compound 3.16 µM
[12] = second compound 0.1 µM, first compound 10 µM
[13] = second compound 0.316 µM, first compound 0.0316 µM
[14] = second compound 0.316 µM, first compound 0.1 µM
[15] = second compound 0.316 µM, first compound 0.316 µM
[16] = second compound 0.316 µM, first compound 1 µM
[17] = second compound 0.316 µM, first compound 3.16 µM
[18] = second compound 0.316 µM, first compound 10 µM
[19] = second compound 1 µM, first compound 0.0316 µM
[20] = second compound 1 µM, first compound 0.1 µM
[21] = second compound 1 µM, first compound 0.316 µM
[22] = second compound 1 µM, first compound 1 µM
[23] = second compound 1 µM, first compound 3.16 µM
[24] = second compound 1 µM, first compound 10 µM
[25] = second compound 3.16 µM, first compound 0.0316 µM
[26] = second compound 3.16 µM, first compound 0.1 µM
[27] = second compound 3.16 µM, first compound 0.316 µM
[28] = second compound 3.16 µM, first compound 1 µM
[29] = second compound 3.16 µM, first compound 3.16 µM
[30] = second compound 3.16 µM, first compound 10 µM
[31] = second compound 10 µM, first compound 0.0316 µM
[32] = second compound 10 µM, first compound 0.1 µM
[33] = second compound 10 µM, first compound 0.316 µM
[34] = second compound 10 µM, first compound 1 µM
[35] = second compound 10 µM, first compound 3.16 µM
[36] = second compound 10 µM, first compound 10 µM
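Note: viability read 7 days after compound addition.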

In the case of `Cn1ncc(Cl)c1-c1cc(C(=O)NC(CN)Cc2cccc(F)c2)sc1Cl` (stereo unspecified) + CC(Nc1ncnc2nc[nH]c12)c1cc2cccc(Cl)c2c(=O)n1-c1ccccc1, the IC50 (second compound 0.0316 µM) is reported as 6.98 µM, the IC50 (second compound 0.1 µM) is reported as 8.83 µM and the IC50 (second compound 0.316 µM) is reported as 6.77 µM. For the same compound, the IC50 (second compound 1 µM) was 8.02 µM, the IC50 (second compound 3.16 µM) was 6.2 µM and the IC50 (second compound 10 µM) was 6 µM. The viability, T/C [1] was 100%, the viability, T/C [2] was 105% and the viability, T/C [3] was 101%. The viability, T/C [4] was 86%, the viability, T/C [5] was 85.7% and the viability, T/C [6] was 35.1%. It also gave a viability, T/C [7] of 106%, a viability, T/C [8] of 119% and a viability, T/C [9] of 96%. For the same compound, the viability, T/C [10] was 91.4%, the viability, T/C [11] was 86.8% and the viability, T/C [12] was 44.5%. The viability, T/C [13] was 114%, the viability, T/C [14] was 109% and the viability, T/C [15] was 99.3%. For the same compound, the viability, T/C [16] was 94.5%, the viability, T/C [17] was 79% and the viability, T/C [18] was 35.7%. The viability, T/C [19] was 107%, the viability, T/C [20] was 110% and the viability, T/C [21] was 92.5%. The viability, T/C [22] was 91.2%, the viability, T/C [23] was 80.6% and the viability, T/C [24] was 42.4%. It also gave a viability, T/C [25] of 99.7%, a viability, T/C [26] of 97.3% and a viability, T/C [27] of 97.8%. For the same compound, the viability, T/C [28] was 86.9%, the viability, T/C [29] was 74.5% and the viability, T/C [30] was 33.4%. The viability, T/C [31] was 92.9%, the viability, T/C [32] was 89.3% and the viability, T/C [33] was 90.2%. The viability, T/C [34] was 87.3%, the viability, T/C [35] was 67.3% and the viability, T/C [36] was 36.1%.

For `Cn1nccc1Nc1nccc(-c2ccn(C(CO)c3ccc(Cl)c(F)c3)c(=O)c2)n1` (stereo unspecified) + CC(Nc1ncnc2nc[nH]c12)c1cc2cccc(Cl)c2c(=O)n1-c1ccccc1, the IC50 (second compound 0.0316 µM) was 7.95 µM, the IC50 (second compound 0.1 µM) was 7.53 µM and the IC50 (second compound 0.316 µM) was 7.72 µM. It also gave an IC50 (second compound 1 µM) of 6.96 µM, an IC50 (second compound 3.16 µM) of 5.22 µM and an IC50 (second compound 10 µM) of 3.03 µM. It also gave a viability, T/C [1] of 105%, a viability, T/C [2] of 103% and a viability, T/C [3] of 98.9%. It also gave a viability, T/C [4] of 90.6%, a viability, T/C [5] of 65.7% and a viability, T/C [6] of 46.1%. For the same compound, the viability, T/C [7] was 111%, the viability, T/C [8] was 109% and the viability, T/C [9] was 92.7%. For the same compound, the viability, T/C [10] was 87.5%, the viability, T/C [11] was 64.6% and the viability, T/C [12] was 45%. It also gave a viability, T/C [13] of 107%, a viability, T/C [14] of 113% and a viability, T/C [15] of 100%. It also gave a viability, T/C [16] of 78.1%, a viability, T/C [17] of 76.4% and a viability, T/C [18] of 42.7%. It also gave a viability, T/C [19] of 114%, a viability, T/C [20] of 109% and a viability, T/C [21] of 92.6%. The viability, T/C [22] was 86.2%, the viability, T/C [23] was 70.3% and the viability, T/C [24] was 40.4%. For the same compound, the viability, T/C [25] was 109%, the viability, T/C [26] was 94.3% and the viability, T/C [27] was 87.5%. For the same compound, the viability, T/C [28] was 78%, the viability, T/C [29] was 63.3% and the viability, T/C [30] was 35.1%. For the same compound, the viability, T/C [31] was 88.2%, the viability, T/C [32] was 86.3% and the viability, T/C [33] was 79.6%. It also gave a viability, T/C [34] of 77.4%, a viability, T/C [35] of 48.4% and a viability, T/C [36] of 27.4%.

For `Cn1ncnc1[C@H]1c2n[nH]c(=O)c3cc(F)cc(c23)N[C@@H]1c1ccc(F)cc1` + CC(Nc1ncnc2nc[nH]c12)c1cc2cccc(Cl)c2c(=O)n1-c1ccccc1, the IC50 (second compound 0.0316 µM) was over 0.1 µM, the IC50 (second compound 0.1 µM) was over 0.1 µM and the IC50 (second compound 0.316 µM) was over 0.1 µM. The IC50 (second compound 1 µM) was over 0.1 µM, the IC50 (second compound 3.16 µM) was over 0.1 µM and the IC50 (second compound 10 µM) was over 0.1 µM. For the same compound, the viability, T/C (second compound 0.0316 µM, first compound 0.000316 µM) was 105%, the viability, T/C (second compound 0.0316 µM, first compound 0.001 µM) was 102% and the viability, T/C (second compound 0.0316 µM, first compound 0.00316 µM) was 102%. For the same compound, the viability, T/C (second compound 0.0316 µM, first compound 0.01 µM) was 99.6%, the viability, T/C [1] was 114% and the viability, T/C [2] was 103%. It also gave a viability, T/C (second compound 0.1 µM, first compound 0.000316 µM) of 117%, a viability, T/C (second compound 0.1 µM, first compound 0.001 µM) of 112% and a viability, T/C (second compound 0.1 µM, first compound 0.00316 µM) of 96%. The viability, T/C (second compound 0.1 µM, first compound 0.01 µM) was 98.5%, the viability, T/C [7] was 111% and the viability, T/C [8] was 95.3%. The viability, T/C (second compound 0.316 µM, first compound 0.000316 µM) was 110%, the viability, T/C (second compound 0.316 µM, first compound 0.001 µM) was 113% and the viability, T/C (second compound 0.316 µM, first compound 0.00316 µM) was 110%. It also gave a viability, T/C (second compound 0.316 µM, first compound 0.01 µM) of 102%, a viability, T/C [13] of 108% and a viability, T/C [14] of 106%. It also gave a viability, T/C (second compound 1 µM, first compound 0.000316 µM) of 109%, a viability, T/C (second compound 1 µM, first compound 0.001 µM) of 108% and a viability, T/C (second compound 1 µM, first compound 0.00316 µM) of 101%. The viability, T/C (second compound 1 µM, first compound 0.01 µM) was 100%, the viability, T/C [19] was 100% and the viability, T/C [20] was 104%. For the same compound, the viability, T/C (second compound 3.16 µM, first compound 0.000316 µM) was 104%, the viability, T/C (second compound 3.16 µM, first compound 0.001 µM) was 101% and the viability, T/C (second compound 3.16 µM, first compound 0.00316 µM) was 99.4%. For the same compound, the viability, T/C (second compound 3.16 µM, first compound 0.01 µM) was 97.6%, the viability, T/C [25] was 112% and the viability, T/C [26] was 93.3%. It also gave a viability, T/C (second compound 10 µM, first compound 0.000316 µM) of 103%, a viability, T/C (second compound 10 µM, first compound 0.001 µM) of 94.6% and a viability, T/C (second compound 10 µM, first compound 0.00316 µM) of 87.4%. For the same compound, the viability, T/C (second compound 10 µM, first compound 0.01 µM) was 98.8%, the viability, T/C [31] was 100% and the viability, T/C [32] was 88.1%.
